This is an account of results in patent US11667602B2, “Compounds and their use” (AstraZeneca AB, priority 2020, dated 2023).

Values after ≈ are worked out from the molar mass of the structure shown. Some results are limits rather than exact numbers.

The target of one data set is T1, human RXFP1 (Homo sapiens, UniProt Q9HBX9).
T1 sequence (Q9HBX9 1-757): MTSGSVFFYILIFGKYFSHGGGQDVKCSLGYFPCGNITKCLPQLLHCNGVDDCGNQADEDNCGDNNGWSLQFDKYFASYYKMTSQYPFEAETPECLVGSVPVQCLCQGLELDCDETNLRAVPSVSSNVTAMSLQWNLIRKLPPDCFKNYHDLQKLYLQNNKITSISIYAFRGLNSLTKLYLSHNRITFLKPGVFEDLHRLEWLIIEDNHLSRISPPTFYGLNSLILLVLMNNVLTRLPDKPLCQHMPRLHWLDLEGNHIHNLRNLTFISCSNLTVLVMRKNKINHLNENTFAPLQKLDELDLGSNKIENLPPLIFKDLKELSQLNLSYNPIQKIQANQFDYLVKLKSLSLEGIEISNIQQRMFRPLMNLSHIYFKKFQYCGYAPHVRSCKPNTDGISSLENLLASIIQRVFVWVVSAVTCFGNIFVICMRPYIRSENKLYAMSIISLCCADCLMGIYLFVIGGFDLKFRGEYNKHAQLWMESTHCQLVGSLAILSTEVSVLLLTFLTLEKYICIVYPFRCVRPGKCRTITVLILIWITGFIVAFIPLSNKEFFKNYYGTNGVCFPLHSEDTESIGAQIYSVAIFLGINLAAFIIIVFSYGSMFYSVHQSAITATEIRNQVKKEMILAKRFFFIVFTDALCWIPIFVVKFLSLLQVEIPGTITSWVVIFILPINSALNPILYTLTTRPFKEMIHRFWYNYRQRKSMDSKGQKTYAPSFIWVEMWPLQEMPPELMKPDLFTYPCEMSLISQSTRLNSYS
In words: RXFP1 Hu cAMP (Test A). Details: expressed in transfected cells; host or cells: Jump-In T-REx CHO-K1 cells (ThermoFisher), induced with 10 ng/ml doxycycline for 24 h. The following applies: RXFP1 Hu cAMP; for EC50: read-out: Test A EC50. The data set is classed as cell-based. In short, it runs like this: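 CHO-K1 (Jump-In T-REx), RXFP1 induced w/ 10 ng/ml doxycycline 24 h, cryopreserved. 0.5 mM IBMX final. cAMP by HTRF, 2 h RT, std curve.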

Data set [1] in a line: Human Liver Microsomal Stability (Test C). The data set is classed as in vitro ADME. The following applies: for microsomal CLint: human, liver microsomes; for Test C Human Liver Microsomal Stability Clint: human liver microsomes. A digest of the protocol:
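CLint (μl/min/mg protein) derived from compound depletion in human liver microsomes following a published standardized early-DMPK protocol; replicate determinations given as arithmetic mean.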
A general note: Liver microsomes are a subcellular fraction often used to study metabolism.

The nature of data set [2]: Rat Hepatocyte Stability (Test E). The following applies: geometric mean if run multiple times; for hepatocyte CLint: rat, hepatocytes; for Test E Rat Hepatocyte Stability Clint: rat hepatocytes. Format: in vitro ADME. In short, it runs like this:
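Intrinsic clearance in rat hepatocytes, expressed as μl/min/10^6 cells, following the literature integrated DMPK panel method. Repeat determinations combined as geometric mean.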

A short description of data set [3]: Human Hepatocyte Stability (Test D). The following applies: geometric mean if run multiple times; for hepatocyte CLint at 1 µM: human, cryopreserved pooled human hepatocytes (LiverPool 10-Donor); for Test D Human Hepatocyte Stability Clint: human hepatocytes. The data set is classed as in vitro ADME. In short, it runs like this:
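Intrinsic clearance (μL/min/10^6 cells), derived as kV/N from the log-linear loss of parent compound. Compound incubated at 37 °C with cryopreserved pooled human hepatocytes, 0.25×10^6 cells in 0.25 mL L-15; dosing solution 100 μM in acetonitrile. Singlicate incubations, cassette LC-MS; repeats reported as geometric mean.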

Data set [4] in a line: Human Plasma Protein Binding (Test B). Format: in vitro ADME. The following applies: fraction unbound (fu). In short, it runs like this: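 Values given as % free (fu) in human plasma, using the method of Wernevik et al. (2020). For compounds tested more than once, the arithmetic mean is given.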
The next data set is described as follows: Solubility (Test F). Particulars: arithmetic mean if run multiple times. Format: physicochemical. Here is the method: The assay was conducted according to the Solubility Assay described in pages 164-167 of Wernevik, J. et al., “A Fully Integrated Assay Panel for Early Drug Metabolism and Pharmacokinetics Profiling”, Assay and Drug Development Technologies, 2020, 18(4), 157-179. Data are reported in Table 36 as solubility ([…]. Where the assay was run multiple times for the same compound, the arithmetic mean is reported.

For the molecule `COc1cc(F)c(O[C@H]2CC[C@@H](C(=O)O)CC2)cc1C(=O)N[C@@H]1CC(F)(F)C[C@@H]1C(=O)Nc1ccc(F)c(C(F)(F)F)c1` (racemic) [Example 493], at human RXFP1, the “Test A Sinf” value was found to be 108% and the EC50 amounted to 0.42 µM. In data set [1], the microsomal CLint was less than 3 µL/min/mg. Besides, in data set [2], the hepatocyte CLint came to 4 µL/min/1e6 cells. In addition, the hepatocyte CLint at 1 µM in data set [3] turned out to be 2.4 µL/min/1e6 cells. Moreover, the “Test B Human Plasma Protein Binding (% free)” value in data set [4] turned out to be 1.3 % free. In the data set “Solubility (Test F)”, the solubility turned out to be 38 µM (≈ 23.6 µg/mL).
In the case of `COc1cc(C#N)c(O[C@H]2CC[C@@](C)(C(=O)O)CC2)cc1C(=O)N[C@H]1C2CCC(CC2)[C@H]1C(=O)NCC1(C)CCC1` (relative stereo) [Example 539, (1R,4s)-4-(2-Cyano-4-methoxy-5-(((2S*,3R*)-3-(((1-methylcyclobutyl)methyl)carbamoyl)bicyclo[2.2.2]octan-2-yl)carbamoyl)phenoxy)-1-methylcyclohexane-1-carboxylic acid], at human RXFP1, the “Test A Sinf” value was 102% and the EC50 came out at 0.0031 µM. For the same molecule, the “Test C Human Liver Microsomal Stability Clint” value in data set [1] is 63 µL/min/mg. Also, the “Test E Rat Hepatocyte Stability Clint” value in data set [2] is on record as 28 μL/min/10^6 cells. The “Test D Human Hepatocyte Stability Clint” value in data set [3] was 64 μL/min/10^6 cells. Further, the “Test B Human Plasma Protein Binding (% free)” value in data set [4] amounted to 3.2 % free. This molecule also came in with a solubility in the data set “Solubility (Test F)” of 700 µM (≈ 396 µg/mL).
As for `COc1cc(F)c(O[C@H]2CC[C@@](C)(C(=O)O)CC2)cc1C(=O)N[C@@H]1COCC[C@@H]1C(=O)Nc1cccc(S(=O)(=O)C(F)(F)F)c1` (relative stereo) [Example 559, (1R,4s)-4-(2-Fluoro-4-methoxy-5-(((3S*,4S*)-4-((3-((trifluoromethyl)sulfonyl)phenyl)carbamoyl)tetrahydro-2H-pyran-3-yl)carbamoyl)phenoxy)-1-methylcyclohexane-1-carboxylic acid], at human RXFP1, the “Test A Sinf” value is 102% and the EC50 was 1.2 µM. In addition, the “Test C Human Liver Microsomal Stability Clint” value in data set [1] came out at 9.4 µL/min/mg. The “Test E Rat Hepatocyte Stability Clint” value in data set [2] amounted to 8.4 μL/min/10^6 cells. The “Test D Human Hepatocyte Stability Clint” value in data set [3] is 4.1 μL/min/10^6 cells. Also, the “Test B Human Plasma Protein Binding (% free)” value in data set [4] came out at 2.5 % free. Also, the solubility in “Solubility (Test F)” is listed as 900 µM (≈ 595 µg/mL).
For `COc1cc(F)c(O[C@H]2CC[C@@](C)(C(=O)O)CC2)cc1C(=O)N[C@@H]1COC[C@@H]1C(=O)Nc1cccc(S(=O)(=O)C(F)(F)F)c1` (relative stereo) [Example 561, (1R,4s)-4-(2-Fluoro-4-methoxy-5-(((3S*,4R*)-4-((3-((trifluoromethyl)sulfonyl)phenyl)carbamoyl)tetrahydrofuran-3-yl)carbamoyl)phenoxy)-1-methylcyclohexane-1-carboxylic acid], at human RXFP1, the “Test A Sinf” value came out at 104% and the EC50 came to 0.13 µM. For the same molecule, the “Test C Human Liver Microsomal Stability Clint” value in data set [1] stood at 17 µL/min/mg. In addition, in data set [2], the “Test E Rat Hepatocyte Stability Clint” value worked out at 55 μL/min/10^6 cells. The “Test D Human Hepatocyte Stability Clint” value in data set [3] was determined as 6.3 μL/min/10^6 cells. Further, the “Test B Human Plasma Protein Binding (% free)” value in data set [4] is given as 3.7 % free. In addition, the solubility in “Solubility (Test F)” turned out to be 930 µM (≈ 601 µg/mL).
Take `CCC(CC)[C@H](C)NC(=O)[C@H]1[C@@H]2CC[C@@H](C2)[C@H]1NC(=O)c1cc(O[C@H]2CC[C@@](C)(C(=O)O)CC2)c(F)cc1OC` (single isomer, unassigned) [Example 144, (1S,4s)-4-(5-(((1S,2R,3S,4R)-3-(((R*)-3-Ethylpentan-2-yl)carbamoyl)bicyclo-[2.2.1]heptan-2-yl)carbamoyl)-2-fluoro-4-methoxyphenoxy)-1-methylcyclohexane-1-carboxylic acid]: at human RXFP1, the “Test A Sinf” value came to 106% and the EC50 was 0.093 µM. The same molecule had an intrinsic metabolic clearance (microsomal CLint) in data set [1] of 240 µL/min/mg. The molecule also returned an intrinsic clearance (hepatocyte CLint) in data set [2] of 29 µL/min/1e6 cells. The hepatocyte CLint at 1 µM in data set [3] turned out to be 17 µL/min/1e6 cells. Also, the “Test B Human Plasma Protein Binding (% free)” value in data set [4] is listed as 3 % free. Further, the concentration in solution in the data set “Solubility (Test F)” (solubility) was 29 µM (≈ 16.3 µg/mL).
As for `CCC(CC)[C@@H](C)NC(=O)[C@H]1[C@@H]2CC[C@@H](C2)[C@H]1NC(=O)c1cc(O[C@H]2CC[C@@](C)(C(=O)O)CC2)c(F)cc1OC` (single isomer, unassigned) [Example 145, (1S,4s)-4-(5-(((1S,2R,3S,4R)-3-(((R*)-3-Ethylpentan-2-yl)carbamoyl)bicyclo[2.2.1]heptan-2-yl)carbamoyl)-2-fluoro-4-methoxyphenoxy)-1-methylcyclohexane-1-carboxylic acid], on human RXFP1, the “Test A Sinf” value is reported as 95% and the EC50 was 1.3 µM. In addition, the microsomal CLint in data set [1] turned out to be 180 µL/min/mg. Also, in data set [2], the hepatocyte CLint is 53 µL/min/1e6 cells. This molecule yielded a hepatocyte CLint at 1 µM in data set [3] of 14 µL/min/1e6 cells. Besides, the “Test B Human Plasma Protein Binding (% free)” value in data set [4] was 0.81 % free. The molecule also registered a solubility in the data set “Solubility (Test F)” of 870 µM (≈ 488 µg/mL).
On to `COc1cc(F)c(-c2ccc(CCS(N)(=O)=O)cc2)cc1C(=O)N[C@H]1[C@H]2CC[C@H](C2)[C@H]1C(=O)Nc1cccc(S(=O)(=O)C(F)(F)F)c1` (single isomer, unassigned) [Example 326], for which, on human RXFP1, the “Test A Sinf” value worked out at 114% and the EC50 was determined as 0.11 µM. In addition, the microsomal CLint in data set [1] came out at 65 µL/min/mg. In addition, the hepatocyte CLint in data set [2] worked out at 4.6 µL/min/1e6 cells. Also, in data set [3], the hepatocyte CLint at 1 µM worked out at 8 µL/min/1e6 cells. Further, in data set [4], the “Test B Human Plasma Protein Binding (% free)” value was less than 0.35 % free. In the data set “Solubility (Test F)”, the concentration in solution (solubility) came to 8 µM (≈ 5.58 µg/mL).
Turning to `COc1cc(F)c(O[C@H]2CC[C@@H](C(=O)O)CC2)cc1C(=O)N[C@H]1[C@@H](C(=O)Nc2ccc(F)c(C(F)(F)F)c2)[C@@H]2C=C[C@H]1C2` (single isomer, unassigned) [Example 498], on human RXFP1, the “Test A Sinf” value amounted to 113% and the EC50 was more than 0.03 µM. In addition, the microsomal CLint in data set [1] is 23 µL/min/mg. In addition, in data set [2], the hepatocyte CLint came to 17 µL/min/1e6 cells. Further, the hepatocyte CLint at 1 µM in data set [3] came to 7.7 µL/min/1e6 cells. Further, the “Test B Human Plasma Protein Binding (% free)” value in data set [4] is recorded as 0.86 % free. This molecule also showed a solubility in the data set “Solubility (Test F)” of more than 980 µM.
With `COc1cc(F)c(O[C@H]2CC[C@@](C)(C(=O)O)CC2)cc1C(=O)NC1CCOCC1C(=O)Nc1cccc(S(=O)(=O)C(F)(F)F)c1` (single isomer, unassigned) [Example 518, (1R,4s)-4-(2-Fluoro-4-methoxy-5-(((3S*,4S*)-3-((3-((trifluoromethyl)sulfonyl)phenyl)carbamoyl)tetrahydro-2H-pyran-4-yl)carbamoyl)phenoxy)-1-methylcyclohexane-1-carboxylic acid], at human RXFP1, the “Test A Sinf” value stood at 95% and the EC50 worked out at 0.13 µM. The molecule also returned a microsomal CLint in data set [1] of 22 µL/min/mg. This molecule registered a hepatocyte CLint in data set [2] of 13 µL/min/1e6 cells. This molecule displayed a hepatocyte CLint at 1 µM in data set [3] of 5 µL/min/1e6 cells. Further, the “Test B Human Plasma Protein Binding (% free)” value in data set [4] is 2.1 % free. Moreover, the solubility in the data set “Solubility (Test F)” worked out at 990 µM (≈ 654 µg/mL).
As to `COc1cc(F)c(O[C@H]2CC[C@@](C)(C(=O)O)CC2)cc1C(=O)NC1C2CCC(C2)C1C(=O)Nc1ccc(F)c(S(F)(F)(F)(F)F)c1` (single isomer, unassigned) [Example 520, (1R,4s)-4-(2-Fluoro-5-(((1S*,2S*,3R*,4R*)-3-((4-fluoro-3-(pentafluoro-λ6-sulfaneyl)phenyl)carbamoyl)bicyclo[2.2.1]heptan-2-yl)carbamoyl)-4-methoxyphenoxy)-1-methylcyclohexane-1-carboxylic acid], on human RXFP1, the “Test A Sinf” value is on record as 108% and the EC50 worked out at 0.00049 µM. Further, the microsomal CLint in data set [1] came to 12 µL/min/mg. The hepatocyte CLint in data set [2] was 7.5 µL/min/1e6 cells. In data set [3], this molecule came in with a hepatocyte CLint at 1 µM of 5.7 µL/min/1e6 cells. The “Test B Human Plasma Protein Binding (% free)” value in data set [4] is recorded as less than 0.070 % free. The amount in solution in the data set “Solubility (Test F)” (solubility) came to 460 µM (≈ 314 µg/mL).

The EC50 is the midpoint of the concentration-response curve. One may read the microsomal CLint as the rate of metabolic loss divided by the concentration. The low end stands for greater metabolic stability, the high end for faster metabolism. The term hepatocyte CLint denotes a measure of how fast metabolising enzymes remove a compound, apart from limits set by blood flow. By solubility is commonly meant the concentration that dissolves in the medium under given conditions.
